# Laboratory results: patent US4933456A, “Dipyridoxyl phosphate NMRI contrast agents” (Salutar, Inc., priority 1987, dated 1990)
# Like-named read-outs stand apart in the source and are kept apart here.
# Legend:
# [1] = Method: The compound DPDP was studied potentiometrically from pH 11.2 to 2.0. Data sets were collected on a custom-built automatic potentiometric titration apparatus composed of a METROHM 655 DOSIMAT automatic buret, a FISHER ACCUMET pH meter with a CORNING calomel combination electrode, a custom-blown water jacketed titration cell, a BRINKMAN LAUDA K-2/R constant temperature bath and a COMMODORE 64 computer. […] Data analysis was performed on an IBM-AT computer using the least squares program, BETA (Harris, W. et al, supra), and the data analysis program, HANDNBAR (Harris, W. et al, supra). The titrants were standardized by phenophthalein titration as follows: KOH was calibrated against potassium hydrogen phthalate (a primary standard), and HCl solutions were calibrated against the KOH standard. […] All solutions were made from distilled, deionized water that was further purified on a MILLI-Q cartridge system, degassed, and then kept under an atmosphere of argon which had been scrubbed for CO2 and O2. Additions of EDTA and Mn(II) solutions were performed using calibrated GILMOT pipets.
# The metal complex titration was performed by adding 152.2 mg (0.2383 mmoles) to 74.6 ml of a high pH aqueous solution.
# [2] = defects not observable without Mn(DPDP)
# selected body organs = conditions: 30 min
# Method: Each of four rabbits was injected intravenously with one of the following amounts of the solution obtained in Example 7: 0.01 mmoles/kg, 0.05 mmoles/kg, 0.10 mmoles/kg and 0.20 mmoles/kg. The rabbits were sacrificed 30 min post injection, and the proton relaxation values of selected body organs were measured with NMR, in vitro at 10 MHz.
# [3] = 10 MHz, 37° C
# Method: The relations of protons present in water and plasma exposed to the chelate product of Example 7 was tested by NMR for relaxities, in msec, at 10 MHz, 37° C.
structure (smiles),measurement,setting,value
"Cc1ncc(COP(=O)(O)O)c(CN(CCN(CC(=O)[O-])Cc2c(COP(=O)(O)O)cnc(C)c2O)CC(=O)[O-])c1O.[Mn+2] [Mn(DPDP), sodium-calcium salt of a manganese chelate complex of N,N,-bis-(pyridoxal-5-phosphate)ethylenediamine-N,N'-diacetic acid or N,N'-bis(3-hydroxy-2-methyl-5-phosphonomethyl-4-pyridylmethyl)ethylenediamine-N,N'-diacetic acid]",log Kf (formation constant),"[1]; Mn(II) chelate, potentiometric, pH 11.1 to 2.0",14.8
same,binding of Mn(II) ion to the chelating agent at physiological pH,"[1]; physiological pH, Mn stabilized at the +2 valence",quantitatively bound
same,pH below which the complex begins to demetallate,[1]; titration data,below 4.5
same,detection of blood-brain barrier defects by NMRI tomography,[2],defects were observed by NMRI tomography
same,uptake by the heart through the dose range studied,"selected body organs; 0.05-0.20 mmol/kg, i.v.",continues to uptake
same,T1,"selected body organs; Blood, 0.01 mmol/kg i.v.",844 ms
same,T1,"selected body organs; Blood, 0.05 mmol/kg i.v.",613 ms
same,T1,"selected body organs; Blood, 0.10 mmol/kg i.v.",506 ms
same,T1,"selected body organs; Blood, 0.20 mmol/kg i.v.",411 ms
same,T1,"selected body organs; Brain, 0.01 mmol/kg i.v.",554 ms
same,T2,"selected body organs; Brain, 0.01 mmol/kg i.v.",76 ms
same,T1,"selected body organs; Brain, 0.05 mmol/kg i.v.",496 ms
same,T2,"selected body organs; Brain, 0.05 mmol/kg i.v.",82 ms
same,T1,"selected body organs; Brain, 0.10 mmol/kg i.v.",590 ms
same,T2,"selected body organs; Brain, 0.10 mmol/kg i.v.",90 ms
same,T1,"selected body organs; Brain, 0.20 mmol/kg i.v.",352 ms
same,T2,"selected body organs; Brain, 0.20 mmol/kg i.v.",66 ms
same,T1,"selected body organs; Fat, 0.05 mmol/kg i.v.",200 ms
same,T2,"selected body organs; Fat, 0.05 mmol/kg i.v.",139 ms
same,T1,"selected body organs; Fat, 0.10 mmol/kg i.v.",183 ms
same,T2,"selected body organs; Fat, 0.10 mmol/kg i.v.",115 ms
same,T1,"selected body organs; Fat, 0.20 mmol/kg i.v.",192 ms
same,T1,"selected body organs; Heart, 0.05 mmol/kg i.v.",353 ms
same,T2,"selected body organs; Heart, 0.05 mmol/kg i.v.",54 ms
same,T1,"selected body organs; Heart, 0.10 mmol/kg i.v.",300 ms
same,T2,"selected body organs; Heart, 0.10 mmol/kg i.v.",51 ms
same,T1,"selected body organs; Heart, 0.20 mmol/kg i.v.",205 ms
same,T2,"selected body organs; Heart, 0.20 mmol/kg i.v.",47 ms
same,T1,"selected body organs; Large Int., 0.01 mmol/kg i.v.",283 ms
same,T2,"selected body organs; Large Int., 0.01 mmol/kg i.v.",64 ms
same,T1,"selected body organs; Large Int., 0.05 mmol/kg i.v.",365 ms
same,T2,"selected body organs; Large Int., 0.05 mmol/kg i.v.",83 ms
same,T1,"selected body organs; Large Int., 0.10 mmol/kg i.v.",290 ms
same,T2,"selected body organs; Large Int., 0.10 mmol/kg i.v.",57 ms
same,T1,"selected body organs; Large Int., 0.20 mmol/kg i.v.",256 ms
same,T2,"selected body organs; Large Int., 0.20 mmol/kg i.v.",74 ms
same,T1,"selected body organs; Liver, 0.01 mmol/kg i.v.",176 ms
same,T2,"selected body organs; Liver, 0.01 mmol/kg i.v.",39 ms
same,T1,"selected body organs; Liver, 0.05 mmol/kg i.v.",76 ms
same,T2,"selected body organs; Liver, 0.05 mmol/kg i.v.",31 ms
same,T1,"selected body organs; Liver, 0.10 mmol/kg i.v.",65 ms
same,T2,"selected body organs; Liver, 0.10 mmol/kg i.v.",23 ms
same,T1,"selected body organs; Liver, 0.20 mmol/kg i.v.",68 ms
same,T2,"selected body organs; Liver, 0.20 mmol/kg i.v.",25 ms
same,T1,"selected body organs; Lung, 0.05 mmol/kg i.v.",575 ms
same,T2,"selected body organs; Lung, 0.05 mmol/kg i.v.",113 ms
same,T1,"selected body organs; Lung, 0.10 mmol/kg i.v.",435 ms
same,T2,"selected body organs; Lung, 0.10 mmol/kg i.v.",61 ms
same,T1,"selected body organs; Lung, 0.20 mmol/kg i.v.",376 ms
same,T2,"selected body organs; Lung, 0.20 mmol/kg i.v.",63 ms
same,T1,"selected body organs; Renal Cort., 0.01 mmol/kg i.v.",298 ms
same,T2,"selected body organs; Renal Cort., 0.01 mmol/kg i.v.",65 ms
same,T1,"selected body organs; Renal Cort., 0.05 mmol/kg i.v.",210 ms
same,T2,"selected body organs; Renal Cort., 0.05 mmol/kg i.v.",57 ms
same,T1,"selected body organs; Renal Cort., 0.10 mmol/kg i.v.",188 ms
same,T2,"selected body organs; Renal Cort., 0.10 mmol/kg i.v.",55 ms
same,T1,"selected body organs; Renal Cort., 0.20 mmol/kg i.v.",143 ms
same,T2,"selected body organs; Renal Cort., 0.20 mmol/kg i.v.",53 ms
same,T1,"selected body organs; Renal Med., 0.01 mmol/kg i.v.",502 ms
same,T2,"selected body organs; Renal Med., 0.01 mmol/kg i.v.",99 ms
same,T1,"selected body organs; Renal Med., 0.05 mmol/kg i.v.",223 ms
same,T2,"selected body organs; Renal Med., 0.05 mmol/kg i.v.",57 ms
same,T1,"selected body organs; Renal Med., 0.10 mmol/kg i.v.",209 ms
same,T2,"selected body organs; Renal Med., 0.10 mmol/kg i.v.",48 ms
same,T1,"selected body organs; Renal Med., 0.20 mmol/kg i.v.",127 ms
same,T2,"selected body organs; Renal Med., 0.20 mmol/kg i.v.",60 ms
same,T1,"selected body organs; Skel. Musc., 0.05 mmol/kg i.v.",494 ms
same,T2,"selected body organs; Skel. Musc., 0.05 mmol/kg i.v.",47 ms
same,T1,"selected body organs; Skel. Musc., 0.10 mmol/kg i.v.",425 ms
same,T2,"selected body organs; Skel. Musc., 0.10 mmol/kg i.v.",31 ms
same,T1,"selected body organs; Skel. Musc., 0.20 mmol/kg i.v.",232 ms
same,T2,"selected body organs; Skel. Musc., 0.20 mmol/kg i.v.",31 ms
same,T1,"selected body organs; Small Int., 0.01 mmol/kg i.v.",324 ms
same,T2,"selected body organs; Small Int., 0.01 mmol/kg i.v.",72 ms
same,T1,"selected body organs; Small Int., 0.05 mmol/kg i.v.",237 ms
same,T2,"selected body organs; Small Int., 0.05 mmol/kg i.v.",52 ms
same,T1,"selected body organs; Small Int., 0.10 mmol/kg i.v.",218 ms
same,T2,"selected body organs; Small Int., 0.10 mmol/kg i.v.",46 ms
same,T1,"selected body organs; Small Int., 0.20 mmol/kg i.v.",131 ms
same,T2,"selected body organs; Small Int., 0.20 mmol/kg i.v.",46 ms
same,T1,"selected body organs; Stom., 0.05 mmol/kg i.v.",245 ms
same,T2,"selected body organs; Stom., 0.05 mmol/kg i.v.",41 ms
same,T1,"selected body organs; Stom., 0.10 mmol/kg i.v.",242 ms
same,T2,"selected body organs; Stom., 0.10 mmol/kg i.v.",52 ms
same,T1,"selected body organs; Stom., 0.20 mmol/kg i.v.",271 ms
same,T2,"selected body organs; Stom., 0.20 mmol/kg i.v.",53 ms
same,T1,"selected body organs; Urine, 0.01 mmol/kg i.v.",821 ms
same,T1,"selected body organs; Urine, 0.05 mmol/kg i.v.",150 ms
same,T2,"selected body organs; Urine, 0.05 mmol/kg i.v.",136 ms
same,T1,"selected body organs; Urine, 0.10 mmol/kg i.v.",90 ms
same,T2,"selected body organs; Urine, 0.10 mmol/kg i.v.",75 ms
same,dose saturating the liver and kidneys,"selected body organs; rabbit, i.v.",0.10 mmol/kg
same,uptake by the brain,"selected body organs; rabbit, i.v.",observed at higher doses
same,"uptake in the heart, liver and kidneys","selected body organs; rabbit, i.v.",rapid uptake
same,T1 (Plasma),[3]; 0.000039 molar,1103 ms
same,T1 (Plasma),[3]; 0.000078 molar,995 ms
same,T1 (Plasma),[3]; 0.000156 molar,856 ms
same,T1 (Water),[3]; 0.000156 molar,1470 ms
same,T1 (Plasma),[3]; 0.000312 molar,624 ms
same,T1 (Water),[3]; 0.000312 molar,1083 ms
same,T1 (Plasma),[3]; 0.000625 molar,398 ms
same,T1 (Water),[3]; 0.000625 molar,639 ms
same,T1 (Plasma),[3]; 0.00125 molar,240 ms
same,T1 (Water),[3]; 0.00125 molar,332 ms
same,T1 (Plasma),[3]; 0.0025 molar,139 ms
same,T1 (Water),[3]; 0.0025 molar,175 ms
same,T2 (Plasma),[3]; 0.0025 molar,124 ms
same,T1 (Plasma),[3]; 0.005 molar,74 ms
same,T1 (Water),[3]; 0.005 molar,100 ms
same,T2 (Plasma),[3]; 0.005 molar,68 ms
same,T2 (Water),[3]; 0.005 molar,86 ms
same,T1 (Plasma),[3]; 0.010 molar,40 ms
same,T1 (Water),[3]; 0.010 molar,43 ms
same,T2 (Plasma),[3]; 0.010 molar,34 ms
same,T2 (Water),[3]; 0.010 molar,41 ms
